Several values for one entry are separate records, joined by “and”; a condition that tells them apart may be missing. Identical values can stand only once.
System: SW 982 tumor spheroid viability
Assay: Anticancer human tumor SW 982 cell line growth inhibition;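 note: spheroids exposed to compound for 7 days before readout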
Conditions: spheroids with HUVEC and MSC; for viability, T/C: stronger effect = lower value
Procedure, shortened: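 Complex tumor spheroids combined malignant cells with endothelial cells and mesenchymal stem cells. DNA-damaging drugs and DNA repair inhibitors were tested alone and in combination, at half-log dilutions down from clinical Cmax (top 10 microM if Cmax unknown), 0.25% DMSO final.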

[1] = curve of first compound, second compound 0.003 µM
[2] = curve of first compound, second compound 0.00949 µM
[3] = curve of first compound, second compound 0.03 µM
[4] = curve of first compound, second compound 0.0949 µM
[5] = curve of first compound, second compound 0.3 µM
[6] = second compound 0.003 µM, first compound 0.00949 µM
[7] = second compound 0.003 µM, first compound 0.03 µM
[8] = second compound 0.003 µM, first compound 0.0949 µM
[9] = second compound 0.003 µM, first compound 0.3 µM
[10] = second compound 0.003 µM, first compound 0.949 µM
[11] = second compound 0.003 µM, first compound 3 µM
[12] = second compound 0.00949 µM, first compound 0.00949 µM
[13] = second compound 0.00949 µM, first compound 0.03 µM
[14] = second compound 0.00949 µM, first compound 0.0949 µM
[15] = second compound 0.00949 µM, first compound 0.3 µM
[16] = second compound 0.00949 µM, first compound 0.949 µM
[17] = second compound 0.00949 µM, first compound 3 µM
[18] = second compound 0.03 µM, first compound 0.00949 µM
[19] = second compound 0.03 µM, first compound 0.03 µM
[20] = second compound 0.03 µM, first compound 0.0949 µM
[21] = second compound 0.03 µM, first compound 0.3 µM
[22] = second compound 0.03 µM, first compound 0.949 µM
[23] = second compound 0.03 µM, first compound 3 µM
[24] = second compound 0.0949 µM, first compound 0.00949 µM
[25] = second compound 0.0949 µM, first compound 0.03 µM
[26] = second compound 0.0949 µM, first compound 0.0949 µM
[27] = second compound 0.0949 µM, first compound 0.3 µM
[28] = second compound 0.0949 µM, first compound 0.949 µM
[29] = second compound 0.0949 µM, first compound 3 µM
[30] = second compound 0.3 µM, first compound 0.00949 µM
[31] = second compound 0.3 µM, first compound 0.03 µM
[32] = second compound 0.3 µM, first compound 0.0949 µM
[33] = second compound 0.3 µM, first compound 0.3 µM
[34] = second compound 0.3 µM, first compound 0.949 µM
[35] = second compound 0.3 µM, first compound 3 µM

`Cc1sc2c(c1C)C(c1ccc(Cl)cc1)=NC(CC(=O)Nc1ccc(O)cc1)c1nnc(C)n1-2` (centres undefined) + CC[C@@]1(O)C(=O)OCc2c1cc1n(c2=O)Cc2cc3c(CN(C)C)c(O)ccc3nc2-1 gave an IC50 [1] of 285 nM, an IC50 [2] of 553 nM and an IC50 [3] of 490 nM. For the same molecule, the IC50 [4] was 450 nM, the IC50 [5] was 254 nM and the viability, T/C [6] was 112%. It also gave a viability, T/C [7] of 110%, a viability, T/C [8] of 76.4% and a viability, T/C [9] of 49.8%. The viability, T/C [10] was 40.1%, the viability, T/C [11] was 30.5% and the viability, T/C [12] was 97%. The viability, T/C [13] was 98.9%, the viability, T/C [14] was 81.5% and the viability, T/C [15] was 63.8%. For the same molecule, the viability, T/C [16] was 36.9%, the viability, T/C [17] was 36.4% and the viability, T/C [18] was 97.1%. For the same molecule, the viability, T/C [19] was 95.8%, the viability, T/C [20] was 83.2% and the viability, T/C [21] was 58.4%. It also gave a viability, T/C [22] of 38.8%, a viability, T/C [23] of 29.8% and a viability, T/C [24] of 95.2%. It also gave a viability, T/C [25] of 92.1%, a viability, T/C [26] of 85.9% and a viability, T/C [27] of 57.8%. The viability, T/C [28] was 35.5%, the viability, T/C [29] was 29.2% and the viability, T/C [30] was 73.5%. The viability, T/C [31] was 80.6%, the viability, T/C [32] was 71% and the viability, T/C [33] was 45.6%. It also gave a viability, T/C [34] of 30.4% and a viability, T/C [35] of 22.9%.
`O=C(c1cc(Cc2n[nH]c(=O)c3ccccc23)ccc1F)N1CCN(C(=O)C2CC2)CC1` + COc1cc2c(cc1O)CCNC21CSC2c3c(OC(C)=O)c(C)c4c(c3C(COC1=O)N1C(O)C3Cc5cc(C)c(OC)c(O)c5C(C21)N3C)OCO4 gave an IC50 (curve of first compound, second compound 30 pM) of 7800 nM, an IC50 (curve of first compound, second compound 94.9 pM) of 16300 nM and an IC50 (curve of first compound, second compound 0.0003 µM) of 7270 nM. For the same molecule, the IC50 (curve of first compound, second compound 0.000949 µM) was < 94.9 nM, the IC50 [1] was < 94.9 nM and the viability, T/C (second compound 30 pM, first compound 0.0949 µM) was 96.8%. The viability, T/C (second compound 30 pM, first compound 0.3 µM) was 93.2%, the viability, T/C (second compound 30 pM, first compound 0.949 µM) was 97.8% and the viability, T/C (second compound 30 pM, first compound 3 µM) was 71.7%. It also gave a viability, T/C (second compound 30 pM, first compound 9.49 µM) of 47.4%, a viability, T/C (second compound 30 pM, first compound 30 µM) of 38.8% and a viability, T/C (second compound 94.9 pM, first compound 0.0949 µM) of 93.1%. The viability, T/C (second compound 94.9 pM, first compound 0.3 µM) was 91.4%, the viability, T/C (second compound 94.9 pM, first compound 0.949 µM) was 92.6% and the viability, T/C (second compound 94.9 pM, first compound 3 µM) was 76.2%. It also gave a viability, T/C (second compound 94.9 pM, first compound 9.49 µM) of 59.8%, a viability, T/C (second compound 94.9 pM, first compound 30 µM) of 39.9% and a viability, T/C (second compound 0.0003 µM, first compound 0.0949 µM) of 74.4%. It also gave a viability, T/C (second compound 0.0003 µM, first compound 0.3 µM) of 80.7%, a viability, T/C (second compound 0.0003 µM, first compound 0.949 µM) of 70.5% and a viability, T/C (second compound 0.0003 µM, first compound 3 µM) of 70.8%. For the same molecule, the viability, T/C (second compound 0.0003 µM, first compound 9.49 µM) was 43.8%, the viability, T/C (second compound 0.0003 µM, first compound 30 µM) was 28.1% and the viability, T/C (second compound 0.000949 µM, first compound 0.0949 µM) was 32.8%. The viability, T/C (second compound 0.000949 µM, first compound 0.3 µM) was 27.3%, the viability, T/C (second compound 0.000949 µM, first compound 0.949 µM) was 26.8% and the viability, T/C (second compound 0.000949 µM, first compound 3 µM) was 18.3%. For the same molecule, the viability, T/C (second compound 0.000949 µM, first compound 9.49 µM) was 11.1%, the viability, T/C (second compound 0.000949 µM, first compound 30 µM) was 2.5% and the viability, T/C [8] was 0.52%. For the same molecule, the viability, T/C [9] was 0.45%, the viability, T/C [10] was 0.51% and the viability, T/C [11] was 0.63%. For the same molecule, the viability, T/C (second compound 0.003 µM, first compound 9.49 µM) was 0.83% and the viability, T/C (second compound 0.003 µM, first compound 30 µM) was 1.26%.
For `CC1COCCN1c1cc(-c2ccnn2C)c2ccnc(-c3ccn[nH]3)c2n1` (centres undefined), the viability, T/C (compound 0.0316 µM) was 27.4% and 44.4% and 38.4%, the viability, T/C (compound 0.1 µM) was 20.4% and 25.4% and 17.1% and the viability, T/C (compound 0.316 µM) was 16.2% and 17.9% and 12.3%. The viability, T/C (compound 1 µM) was 13.2% and 15.2% and 10.5%, the viability, T/C (compound 3.16 µM) was 20% and 15.6% and 11% and the viability, T/C (compound 10 µM) was 22.1% and 22.6% and 14.1%. The IC50 (curve of compound) was < 31.6 nM.
In the case of `COc1ccc([C@@H](O)c2cc(-c3ncnc4cc(N5CCOCC5)ccc34)c(F)cc2Cl)nn1`, the viability, T/C (compound 0.0316 µM) is reported as 88.1% and 102% and 107%, the viability, T/C (compound 0.1 µM) is reported as 87.4% and 93.8% and 101% and the viability, T/C (compound 0.316 µM) is reported as 90.2% and 97.4% and 99.4%. The viability, T/C (compound 1 µM) was 89.2% (2×) and 98.7%, the viability, T/C (compound 3.16 µM) was 90.2% and 85.7% and 95.6% and the viability, T/C (compound 10 µM) was 57.1% and 67% and 70.2%. The IC50 (curve of compound) was > 10000 nM.
For `Cn1ncnc1[C@H]1c2n[nH]c(=O)c3cc(F)cc(c23)N[C@@H]1c1ccc(F)cc1` + CC[C@@]1(O)C(=O)OCc2c1cc1n(c2=O)Cc2cc3c(CN(C)C)c(O)ccc3nc2-1, the IC50 [1] was > 3000 nM, the IC50 [2] was > 3000 nM and the IC50 [3] was > 3000 nM. For the same molecule, the IC50 [4] was 1640 nM, the IC50 [5] was < 9.49 nM and the viability, T/C [6] was 93.5%. It also gave a viability, T/C [7] of 83.8%, a viability, T/C [8] of 83.4% and a viability, T/C [9] of 82.4%. The viability, T/C [10] was 86.5%, the viability, T/C [11] was 64.9% and the viability, T/C [12] was 91.5%. The viability, T/C [13] was 81.9%, the viability, T/C [14] was 82.5% and the viability, T/C [15] was 84.8%. For the same molecule, the viability, T/C [16] was 92.1%, the viability, T/C [17] was 62.9% and the viability, T/C [18] was 70.7%. For the same molecule, the viability, T/C [19] was 73.7%, the viability, T/C [20] was 70.6% and the viability, T/C [21] was 73.5%. It also gave a viability, T/C [22] of 62%, a viability, T/C [23] of 57.7% and a viability, T/C [24] of 60.6%. For the same molecule, the viability, T/C [25] was 56%, the viability, T/C [26] was 60.9% and the viability, T/C [27] was 59.5%. It also gave a viability, T/C [28] of 58.2%, a viability, T/C [29] of 40.9% and a viability, T/C [30] of 43.5%. It also gave a viability, T/C [31] of 45.4%, a viability, T/C [32] of 41.9% and a viability, T/C [33] of 41.9%. It also gave a viability, T/C [34] of 37.3% and a viability, T/C [35] of 25.1%.
